PubChem BioAssay (NCI)
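Compound exposure: 48 hours, 5 concentrations, 96-well plates. Definition used: TGI = concentration required for complete inhibition of growth.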 *1 amine or outer side, *2 acyl side, *3 side chain or, on linkers, in order; H or OH if unused. Where a SMILES comes first, the peptide text is derived from it. [ ]: non-standard residue; d: D form. The star is where a group is joined. X32 = C[C@H](N[*:1])C(=O)C(C)(C)C(=O)[*:2]; Hmpa(2S,3S) = CC[C@H](C)[C@H](O)C(=O)O; NMeY = CN[C@@H](Cc1ccc(O)cc1)C(=O)O; NMeL = CN[C@@H](CC(C)C)C(=O)O; NMeV = CN[C@H](C(=O)O)C(C)C; Boc = CC(C)(C)OC(=O)*; βAla = NCCC(=O)O

What was measured:
Test in all cases: inhibition of tumour cell growth, NCI panel, 48 h
[1] = tested on: A549 NSCLC
[2] = tested on: ACHN renal
[3] = tested on: DMS 273 small cell lung
[4] = tested on: LXFL 529 NSCLC
[5] = tested on: DLD-1 colon
[6] = tested on: DMS 114 small cell lung
[7] = tested on: KM20L2 colon
[8] = tested on: SNB-78 CNS
[9] = tested on: M19-MEL melanoma

SMILES | TGI [1] [µM] | TGI [2] [µM] | further results
CC(=O)O[C@H]1[C@H](OC(=O)CC(C)(O)CC(=O)O)C[C@]2(C)C3=C(CCC2C1(C)C)[C@]1(C)CC[C@H]([C@H]2CC[C@H](C(C)(C)O)OC2O)[C@@]1(C)[C@@H](O)C3 (some centres not stated) | 98 | 31.2 | –
O=C1C(c2c(O)[nH]c3ccc(Br)cc23)=Nc2ccccc21 | 17.3 | 12.2 | –
CC(=O)O[C@H]1C(=O)[C@@]2(C)C(C(OC(=O)c3ccccc3)C3[C@@H](O)C(OC(=O)[C@@H](O)[C@H](NC(=O)c4ccccc4)c4ccc(C(F)(F)F)cc4)C(C)=C1C3(C)C)[C@]1(OC(C)=O)CO[C@@H]1C[C@@H]2O (some centres not stated) | > 25 | > 25 | TGI [3]: > 25 µM; TGI [4]: > 25 µM; TGI [5]: > 25 µM; TGI [6]: > 25 µM; TGI [7]: > 25 µM; TGI [8]: > 25 µM; TGI [9]: > 25 µM
CC(=O)OCC1OC(n2c(-c3ccc(C)cc3)cc(-c3ccccc3)c(C#N)c2=S)C(OC(C)=O)C(OC(C)=O)C1OC(C)=O (configuration not stated) | > 100 | > 100 | –
O=[N+]([O-])c1ccc(N/N=C/c2ccc(OCCCCCCCCCCCO)cc2)c([N+](=O)[O-])c1 | > 38.9 | > 71.7 | –
COc1ccc(SCc2cc(OCc3ccccc3)c(OCc3ccccc3)c(OCc3ccccc3)c2)cc1 | 3.71 | 3.1 | –
C=C1C2C[C@@H]3O[C@H]4C[C@H]5O[C@@]6(C[C@@H]7O[C@]8(C[C@H](C)[C@@H]9O[C@@H]%10CC(CO)O[C@@H]%10C[C@@H]9O8)C[C@H](C)[C@@H]7O6)C[C@H]5O[C@H]4[C@H](C)[C@H]3OC(=O)C[C@H]3CC[C@@H]4OC5[C@H]6O[C@]7(CC[C@H]8CC(=C)[C@H](CC[C@@H](C[C@H]1C)O2)O8)CC6O[C@@H]5[C@@H](O7)[C@H]4O3 (some centres not stated) | 0.408 | > 1 | –
C=CCc1cccc2cc(C(=O)Nc3ccccn3)c(=N)oc12 | > 100 | > 100 | –
O=C(Nc1nc(C23CC4CC(CC(C4)C2)C3)cs1)c1cc2ccccc2oc1=O | > 100 | > 100 | –
CCOC(=O)c1ccc(N=c2sc3ccccc3nc2Nc2ccc(C(=O)OCC)cc2)cc1 | > 100 | > 100 | –
Cc1cn(CC2=NCC(C)N2)c(=O)[nH]c1=O (configuration not stated) | > 100 | > 100 | –
COCN1C(=O)[C@@H]2CCCN2C(=O)c2cc(N)ccc21 | > 100 | > 100 | –
COc1ccc2nc(-c3ccc(O)cc3)sc2c1 | > 100 | 32.5 | –
CCCCn1c2c(n(CCCC)c1=S)-c1c(n(CCCC)c(=S)n1CCCC)SSc1c(n(CCCC)c(=S)n1CCCC)-c1c(n(CCCC)c(=S)n1CCCC)SSc1c(n(CCCC)c(=S)n1CCCC)-c1c(n(CCCC)c(=S)n1CCCC)SS2 | > 50 | 11.1 | –
O=C1CC(c2ccccc2)n2cccc21 (configuration not stated) | > 100 | > 100 | –
C=C1CCC([N+](=O)[O-])[C@](C)(N=O)CC[C@@H]2C1CC2(C)C (some centres not stated) | 36 | > 100 | –
COC(=O)C1(C)C=CC(=O)C2(C)C1C(O)C1OC3CC(c4ccoc4)C(C)=C3C1(C)C2CC(=O)O (configuration not stated) | > 100 | > 100 | –
COC(=O)C(Cc1c[nH]c2ccccc12)NC(=O)C(Cc1c[nH]c2ccccc12)NC(=O)C(Cc1c[nH]c2ccccc12)NC(=O)C(Cc1c[nH]c2ccccc12)NC(=O)C(Cc1c[nH]c2ccccc12)NC(=O)C(Cc1c[nH]c2ccccc12)NC(=O)C(Cc1c[nH]c2ccccc12)NC(=O)C(Cc1c[nH]c2ccccc12)NC(=O)OC(C)(C)C (configuration not stated) (Boc-WWWWWWWW-OMe; configuration not given here) | > 100 | > 100 | –
C/C(=N\NC(=S)NCCCNC(=S)N/N=C(\C)c1ccccn1)c1ccccn1 | > 49.8 | 16.6 | –

SMILES | TGI [1] [µM] | TGI [2] [µM] | further results
CO/N=C(\C)c1cccc(Nc2c3ccccc3nc3occc23)c1 | 57.3 | – | –
Cc1ccccc1S(=O)(=O)Nn1cnc2ccc(S(=O)(=O)Nc3ccc(Cl)cc3)cc2c1=O | > 100 | > 100 | –
CO/N=C(\C)CCC#Cc1ccccc1C(=O)OC | > 10 | > 10 | –
Cc1ccnc(NC(NC(=O)c2ccccc2)(C(F)(F)F)C(F)(F)F)c1 | > 100 | > 100 | –
N#Cc1cnc(N)nc1NCC1(CO)CC(CCc2ccccc2)C1 (configuration not stated) | > 100 | > 100 | –
O=C(NCCCCCCNC(=O)c1cc(-c2ccccc2)nc2ccccc12)c1cc(-c2ccccc2)nc2ccccc12 | > 100 | > 100 | –
Cc1cc(S(=O)(=O)Nc2nc3ccccc3c(=O)n2N)c(S)cc1Cl | > 100 | > 100 | –
COC(=O)C(CCSC)NC(=O)Cc1ccc(C(=O)c2ccccc2)cc1 (configuration not stated) | > 100 | > 100 | –
CCCCCCCCCCNC(=O)CCC(NC(=O)c1ccc(N(C)Cc2cnc3nc(N)nc(N)c3n2)cc1)C(=O)NCCCCCCCCCC (configuration not stated) | > 100 | > 100 | –
Nc1onc2c1Cc1c(noc1N)-c1ccccc1-2 | > 100 | > 100 | –
C=C(Br)CNC(=O)CCC(=O)NCC(=C)Br | > 100 | > 100 | –
NC(N)=Nc1ccc(CC(N)C(=O)O)cc1 (configuration not stated) | > 12.5 | > 12.5 | –
COc1ccc2c(c1)CCc1c-2n(CCN2CCCCC2)c2ccc(OC)cc12 | > 100 | > 100 | –
CC[C@H](C)[C@@H]1OC(=O)CCNC(=O)[C@@H](C)NC(=O)C(C)(C)C(=O)[C@H](C)NC(=O)[C@H](Cc2ccc(OC)cc2)N(C)C(=O)[C@H](C(C)C)N(C)C(=O)CNC(=O)[C@H](CC(C)C)N(C)C(=O)CNC1=O (cyclo(G[NMeL]G[NMeV][NMeY](Me)[X32][dA][βAla][Hmpa(2S,3S)])) | > 50 | > 38 | –
CC(=O)Nc1ccc(C2SCc3nc4ccccc4n32)cc1 (configuration not stated) | > 100 | > 100 | –
Cn1c2ccccc2c(=O)c2cccc(C(=O)NC(CCC(N)=O)C(=O)O)c21 (configuration not stated) | > 100 | > 100 | –
CC(=O)Nc1c(C)cc2c(nc3n2CCC3O)c1[N+](=O)[O-] (configuration not stated) | > 100 | > 100 | –
CCOC(=O)C(SCCO)C(C(=O)OCC)n1ccc(=O)[nH]c1=O (configuration not stated) | > 100 | > 66.6 | –
O=c1/c(=C/c2ccc(-c3ccc(Cl)cc3Cl)o2)sc2n1[C@@H](c1ccc(Cl)cc1)C=C(c1cc(F)c(Cl)cc1Cl)N=2 | > 100 | > 100 | –
